The values below come from ChEMBL document CHEMBL6087475, “Current and Emerging Approaches Targeting G9a for the Treatment of Various Diseases” (J Med Chem, 2025).

Each structure is given as a SMILES string.

One series deals with PANC-1. As to the kind of experiment: Antiproliferative activity against human PANC-1 cells assessed as reduction in cell growth incubated for 24 hrs by MTT assay. The class given is functional, cell-based. The note with it: PANC-1, 24 h. (In general: Tetrazolium dyes change colour on reduction, which living cells bring about.)
The target in series [1] is DNA (cytosine-5)-methyltransferase 1 (Homo sapiens, UniProt P26358). As to the kind of experiment: Inhibition of DNMT1 (unknown origin).
Chain of DNA (cytosine-5)-methyltransferase 1 (P26358 whole entry): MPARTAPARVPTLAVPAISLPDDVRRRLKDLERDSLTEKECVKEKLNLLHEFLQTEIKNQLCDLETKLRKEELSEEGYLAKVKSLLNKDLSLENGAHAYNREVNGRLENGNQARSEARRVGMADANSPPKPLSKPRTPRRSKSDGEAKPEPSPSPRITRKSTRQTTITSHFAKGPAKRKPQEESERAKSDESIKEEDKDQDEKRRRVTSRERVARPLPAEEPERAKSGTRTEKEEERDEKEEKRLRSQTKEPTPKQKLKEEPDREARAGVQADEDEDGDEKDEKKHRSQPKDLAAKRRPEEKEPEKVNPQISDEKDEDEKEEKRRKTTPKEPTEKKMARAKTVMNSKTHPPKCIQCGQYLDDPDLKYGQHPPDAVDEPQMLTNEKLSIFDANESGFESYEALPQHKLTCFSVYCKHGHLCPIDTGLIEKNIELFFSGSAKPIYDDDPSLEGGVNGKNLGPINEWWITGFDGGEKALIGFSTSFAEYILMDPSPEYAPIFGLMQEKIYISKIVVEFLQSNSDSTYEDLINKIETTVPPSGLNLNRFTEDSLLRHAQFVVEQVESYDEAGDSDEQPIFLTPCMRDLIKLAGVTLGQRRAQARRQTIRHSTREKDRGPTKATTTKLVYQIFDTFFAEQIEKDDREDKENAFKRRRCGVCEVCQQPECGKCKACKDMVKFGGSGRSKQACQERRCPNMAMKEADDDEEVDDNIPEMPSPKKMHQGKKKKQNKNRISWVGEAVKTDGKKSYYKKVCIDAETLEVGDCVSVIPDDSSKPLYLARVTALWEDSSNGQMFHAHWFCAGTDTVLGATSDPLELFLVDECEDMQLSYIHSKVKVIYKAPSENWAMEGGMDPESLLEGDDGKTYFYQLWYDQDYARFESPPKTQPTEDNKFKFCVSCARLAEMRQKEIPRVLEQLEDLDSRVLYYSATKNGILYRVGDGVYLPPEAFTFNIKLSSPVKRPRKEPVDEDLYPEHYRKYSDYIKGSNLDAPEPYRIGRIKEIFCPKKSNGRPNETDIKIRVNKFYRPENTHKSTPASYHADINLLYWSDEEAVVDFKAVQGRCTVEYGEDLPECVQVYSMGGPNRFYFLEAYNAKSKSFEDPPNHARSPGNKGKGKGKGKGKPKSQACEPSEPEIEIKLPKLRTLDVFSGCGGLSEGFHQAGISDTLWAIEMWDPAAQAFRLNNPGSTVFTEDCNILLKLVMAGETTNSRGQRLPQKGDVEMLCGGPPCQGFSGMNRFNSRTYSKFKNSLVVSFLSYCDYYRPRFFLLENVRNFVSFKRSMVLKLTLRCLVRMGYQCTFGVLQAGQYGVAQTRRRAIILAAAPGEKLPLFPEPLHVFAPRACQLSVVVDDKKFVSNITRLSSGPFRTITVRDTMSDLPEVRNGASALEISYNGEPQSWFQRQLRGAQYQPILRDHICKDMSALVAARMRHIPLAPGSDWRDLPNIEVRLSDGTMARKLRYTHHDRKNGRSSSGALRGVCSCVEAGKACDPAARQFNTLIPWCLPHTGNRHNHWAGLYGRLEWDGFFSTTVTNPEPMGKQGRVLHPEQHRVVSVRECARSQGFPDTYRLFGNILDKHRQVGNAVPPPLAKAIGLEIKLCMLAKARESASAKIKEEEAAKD
A further series deals with K562. As to the kind of experiment: Antiproliferative activity against human K562 cells assessed as reduction in cell growth measured after 72 hrs by MTT assay. In kind it is functional, cell-based. Conditions: K562, 72 h.
For series [2], the target named is T1, Histone-lysine N-methyltransferase EHMT2 (Homo sapiens, UniProt Q96KQ7).
T1 sequence (Q96KQ7 whole entry): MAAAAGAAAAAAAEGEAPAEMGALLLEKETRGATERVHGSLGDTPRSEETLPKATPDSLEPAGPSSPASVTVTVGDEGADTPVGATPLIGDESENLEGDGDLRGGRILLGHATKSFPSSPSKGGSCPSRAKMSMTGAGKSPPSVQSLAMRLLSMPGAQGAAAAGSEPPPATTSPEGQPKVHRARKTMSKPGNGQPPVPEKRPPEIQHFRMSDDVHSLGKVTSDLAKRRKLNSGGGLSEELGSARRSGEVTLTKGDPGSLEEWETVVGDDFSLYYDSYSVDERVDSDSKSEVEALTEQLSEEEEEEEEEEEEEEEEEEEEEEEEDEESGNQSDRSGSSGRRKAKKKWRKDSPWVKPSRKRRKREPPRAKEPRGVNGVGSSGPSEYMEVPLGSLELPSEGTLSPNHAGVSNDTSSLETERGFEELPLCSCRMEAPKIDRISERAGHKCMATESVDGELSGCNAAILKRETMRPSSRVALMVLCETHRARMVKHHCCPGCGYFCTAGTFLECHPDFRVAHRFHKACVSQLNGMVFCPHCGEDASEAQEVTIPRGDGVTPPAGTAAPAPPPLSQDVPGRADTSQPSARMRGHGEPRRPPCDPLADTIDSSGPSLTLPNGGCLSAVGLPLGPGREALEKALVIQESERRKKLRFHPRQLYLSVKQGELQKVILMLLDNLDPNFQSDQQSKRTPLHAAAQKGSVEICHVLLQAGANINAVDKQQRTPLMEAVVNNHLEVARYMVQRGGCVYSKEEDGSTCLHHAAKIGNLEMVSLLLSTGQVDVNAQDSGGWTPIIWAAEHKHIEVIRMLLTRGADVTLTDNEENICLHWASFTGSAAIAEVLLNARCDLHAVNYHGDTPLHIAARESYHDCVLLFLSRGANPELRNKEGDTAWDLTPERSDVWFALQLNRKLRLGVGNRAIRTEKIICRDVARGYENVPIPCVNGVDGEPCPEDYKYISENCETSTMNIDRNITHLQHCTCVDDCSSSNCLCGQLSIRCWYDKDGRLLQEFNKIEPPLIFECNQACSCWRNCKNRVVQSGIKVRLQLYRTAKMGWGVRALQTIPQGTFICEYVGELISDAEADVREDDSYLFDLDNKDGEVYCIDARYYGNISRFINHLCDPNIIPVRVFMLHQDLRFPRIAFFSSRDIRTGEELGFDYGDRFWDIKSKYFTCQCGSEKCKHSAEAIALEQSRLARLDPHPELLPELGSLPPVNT
As to the kind of experiment: Inhibition of G9a (unknown origin).

Series [3] is described as follows: Cmax in mouse at 25 mg/kg, ip. The note with it: in vivo. In kind it is ADME, organism-based.
The target in series [4] is von Hippel-Lindau disease tumor suppressor/Histone-lysine N-methyltransferase EHMT2 (Homo sapiens, UniProt Q96KQ7+P40337). As to the kind of experiment: PROTAC activity at G9a/VHL in human 22Rv1 cells assessed as induction of G9a degradation at 1 uM incubated for 24 hrs by Western blot analysis. The class given is cell-based. Background: A western blot detects proteins with antibodies after separation by electrophoresis.
Chain of von Hippel-Lindau disease tumor suppressor/Histone-lysine N-methyltransferase EHMT2 (P40337 whole entry, one chain of several): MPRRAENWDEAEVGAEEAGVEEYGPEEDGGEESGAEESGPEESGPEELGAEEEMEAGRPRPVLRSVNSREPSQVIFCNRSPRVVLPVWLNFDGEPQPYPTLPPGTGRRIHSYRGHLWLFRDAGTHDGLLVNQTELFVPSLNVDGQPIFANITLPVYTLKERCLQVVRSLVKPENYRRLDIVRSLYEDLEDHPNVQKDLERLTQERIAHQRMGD

Series [5] addresses von Hippel-Lindau disease tumor suppressor/Histone-lysine N-methyltransferase EHMT1 (Homo sapiens, UniProt Q9H9B1+P40337). As to the kind of experiment: PROTAC activity at GLP/VHL in human 22Rv1 cells assessed as induction of GLP degradation at 1 uM incubated for 24 hrs by Western blot analysis. In kind it is cell-based.
The next series concerns MCF7. As to the kind of experiment: Antiproliferative activity against human MCF7 cells assessed as reduction in cell growth measured after 72 hrs by MTT assay. Conditions: MCF7, 72 h. In kind it is functional, cell-based.
Series [6] has as its target T2, Histone-lysine N-methyltransferase EHMT1/EHMT2 (Homo sapiens, UniProt Q9H9B1+Q96KQ7).
T2 sequence (Q9H9B1 whole entry): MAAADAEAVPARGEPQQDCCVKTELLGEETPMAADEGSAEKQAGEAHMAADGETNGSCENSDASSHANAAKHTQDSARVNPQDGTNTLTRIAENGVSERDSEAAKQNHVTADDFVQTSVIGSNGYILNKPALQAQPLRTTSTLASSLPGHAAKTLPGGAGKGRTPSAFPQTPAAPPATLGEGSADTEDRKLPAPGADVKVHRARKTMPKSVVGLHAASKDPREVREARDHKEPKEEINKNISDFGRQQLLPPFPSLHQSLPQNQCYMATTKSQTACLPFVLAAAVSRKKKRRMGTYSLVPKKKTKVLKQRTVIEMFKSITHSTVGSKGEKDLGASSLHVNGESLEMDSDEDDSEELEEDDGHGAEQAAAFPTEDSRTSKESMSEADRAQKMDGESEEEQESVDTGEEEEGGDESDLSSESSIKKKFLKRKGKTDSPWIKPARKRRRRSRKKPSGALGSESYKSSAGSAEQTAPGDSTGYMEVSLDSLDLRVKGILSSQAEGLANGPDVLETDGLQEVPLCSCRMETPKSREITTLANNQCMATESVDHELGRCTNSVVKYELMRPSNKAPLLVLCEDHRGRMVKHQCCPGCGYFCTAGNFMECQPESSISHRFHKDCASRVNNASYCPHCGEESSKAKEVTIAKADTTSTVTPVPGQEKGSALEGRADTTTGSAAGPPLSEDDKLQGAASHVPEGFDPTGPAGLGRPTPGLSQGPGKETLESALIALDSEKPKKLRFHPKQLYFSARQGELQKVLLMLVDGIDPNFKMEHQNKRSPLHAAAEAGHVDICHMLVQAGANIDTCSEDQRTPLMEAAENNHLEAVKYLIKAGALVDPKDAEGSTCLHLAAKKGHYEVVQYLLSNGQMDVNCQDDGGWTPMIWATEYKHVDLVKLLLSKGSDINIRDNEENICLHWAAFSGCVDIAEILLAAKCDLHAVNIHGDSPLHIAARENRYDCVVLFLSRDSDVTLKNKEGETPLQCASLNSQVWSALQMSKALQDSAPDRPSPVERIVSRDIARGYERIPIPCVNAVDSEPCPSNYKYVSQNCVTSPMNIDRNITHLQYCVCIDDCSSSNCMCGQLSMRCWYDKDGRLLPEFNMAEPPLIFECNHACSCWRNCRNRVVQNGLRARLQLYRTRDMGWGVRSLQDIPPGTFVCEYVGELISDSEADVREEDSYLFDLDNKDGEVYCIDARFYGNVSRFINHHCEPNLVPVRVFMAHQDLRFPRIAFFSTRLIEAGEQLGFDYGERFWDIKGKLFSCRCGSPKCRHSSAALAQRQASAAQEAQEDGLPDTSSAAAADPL
T2 sequence (Q96KQ7 whole entry): T1 sequence (Q96KQ7 whole entry)
As to the kind of experiment: Inhibition of G9a/GLP in human MDA-MB-231 cells assessed as reduction in H3K9 dimethylation incubated for 3 days by Western blotting analysis. In kind it is cell-based.

Another series has as its system A549. As to the kind of experiment: Antiproliferative activity against human A549 cells assessed as reduction in cell viability measured after 72 hrs by MTT assay. Conditions: A549, 72 h. In kind it is functional, cell-based.

Chain of von Hippel-Lindau disease tumor suppressor/Histone-lysine N-methyltransferase EHMT1 (P40337 whole entry, one chain of several): as the sequence (P40337 whole entry, one chain of several) above

As to `COC(=O)c1ccc2c(c1)nc(NC(=O)c1ccccc1)n2CCCc1ccccc1`, the EC50 (commonly the concentration needed to bring the measured effect to its halfway point) with PANC-1 was 5000 nM.

Turning to `CN(C)C(=O)Nc1ccc(CN2CCC(C(O)(c3ccc(C(F)(F)F)cc3)c3ccc(C(F)(F)F)cc3)CC2)cc1`, the figures for the IC50 (in series [1]; in the series on K562) were 6500 nM and 1700 nM, respectively.

In the case of `COc1cc2c(cc1OC)-c1c(C)c3cc(OC)c(OC)cc3c[n+]1CC2`, the IC50 (as a rule, the concentration that gives 50% inhibition) in series [1] came to 16300 nM.

The compound `COc1cc2nc(N3CCOCC3)nc(NC3CCN(C)CC3)c2cc1OC` showed an IC50 in series [2] of 13 nM.

As for `COc1cc2c(C3CCOCC3)nc(N)nc2cc1OCCCN1CCCC1`, inhibition in [2] was half-maximal at 126 nM (IC50).

In turn, `Cc1ccc(SS(=O)(=O)c2ccc(C)cc2)cc1` returned an IC50 in series [1] of 3060 nM.

On to `CCN(c1cc(-c2ccc(CN3CCOCC3)cc2)cc(C(=O)NCc2c(C)cc(C)[nH]c2=O)c1C)C1CCOCC1` [TAZEMETOSTAT], for which, in [2], the IC50 stood at 2.9 nM.

In [1], `CCN1C[C@H](NC(=O)c2cc3cc(Cl)ccc3[nH]2)[C@@H](OC)C1` returned an IC50 of 1.8 nM.

`Cc1c(C(=O)N[C@@H](CCC2CC2)C(=O)Nc2ccc(C#N)cc2)[nH]c2c1C(=O)CC(C)(C)C2` gave an IC50 in series [1] of 27 nM. In series [3], the Cmax (as a rule, the highest concentration seen after dosing) amounted to 42.4 µM.

The compound `CCOc1ccc(Nc2cc(C)nc3ccc(Cl)cc23)cc1` registered an IC50 in [2] of 67 nM.

`COc1cc2c(NC3CCN(CCCC(=O)NCCCCCCCCNc4cccc5c4C(=O)N(C4CCC(=O)NC4=O)C5=O)CC3)nc(C3CCCCC3)nc2cc1OCCCN1CCCC1` (configuration not stated): the DC50 (in general, the concentration giving 50% degradation) in [4] is 100 nM; in series [5], over 10000 nM.

`COc1ccc2c(NC3CCN(Cc4ccccc4)CC3)nc(NCCNC(=O)CCCCC(=O)NO)nc2c1`: the results for the EC50 in the series with MCF7 and in the series with A549 were 37400 nM and 36200 nM, respectively. The IC50 in [6] came to 7136 nM.
